One assay deals with T1, Cdk2(H71C) (C177A) (Homo sapiens, UniProt P24941, C177A/H71C).
T1 construct: poly-histidine; made in house; host or cells: E. coli
The assay can be described thus: Kinetic thiol consumption assay with Cdk2 mutant H71C. Type of assay: binding. Also noted: key to Rate enhancement, Cdk2 H71C: rate constant with Cdk2 ÷ rate constant with model thiol (fold). As to conditions: additional mutation C177A; for Rate constant with Cdk2 H71C: Protein: Cdk2, cysteine position H71C, in h^-1. An outline of the steps:
(§1)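 5 μM thiol, degassed phosphate pH 8, 2% v/v immobilized TCEP beads; 1 h RT; fluorescence ex 380/em 470 nm; normalized vs DMSO/thiol-only; first-order exponential decay fit → rate constant; Cdk2 k / model-thiol k = rate enhancement per acrylamide.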

Assay [1] addresses T2, human cyclin-dependent kinase 2 (Cdk2) (Homo sapiens, UniProt P24941).
T2 construct: poly-histidine; made in house; host or cells: E. coli
The assay can be described thus: Kinetic thiol consumption assay with wild type Cdk2 (C177). The assay is classed as binding. Also noted: key to Rate enhancement, Cdk2 WT: k(Cdk2) divided by k(model thiol); Rate constant with Cdk2 (k(Cdk2)): unit not given here. Particulars: for Rate constant with Cdk2 (k(Cdk2)): 500 μM ligand, 5 μM thiol, phosphate buffer pH 8; for Rate enhancement, Cdk2 WT: no additional mutations; for Rate constant with Cdk2 WT: Protein: Cdk2, cysteine position WT, in h^-1; for k(Cdk2)/k(Cdk2_mut) rate enhancement: model thiol Cdk2[C177A, F80C, K278C]; for k(Cdk2)/k(GSH) rate enhancement: model thiol glutathione. An outline of the steps:
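Thiol 5 μM (Cdk2 or model thiol), degassed phosphate buffer pH 8, TCEP beads 2% v/v. Plates incubated 1 h RT, ex/em 380/470 nm. First-order decay fit → rate constant; ratio Cdk2/model thiol = rate enhancement.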

In another assay the target is T3, Cdk2[C177A, F80C, K278C] (Homo sapiens, UniProt P24941, C177A/F80C/K278C).
T3 construct: poly-histidine; made in house; host or cells: E. coli
The assay can be described thus: Kinetic thiol consumption assay with mutant Cdk2 as model thiol. Type of assay: binding. Also noted: unit not given here. Particulars: 500 μM ligand, 5 μM thiol, phosphate buffer pH 8. An outline of the steps: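 Model thiol: His-tagged human Cdk2 C177A/F80C/K278C (two engineered surface cysteines), E. coli-expressed, 5 μM in degassed phosphate buffer pH 8 with immobilized TCEP beads (2% v/v). Fluorescence (ex/em 380/470 nm) followed over time at room temperature, normalized to DMSO/thiol control. First-order decay fit gives rate constants.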

The next assay addresses T4, Cdk2(N272C) (C177A) (Homo sapiens, UniProt P24941, C177A/N272C).
T4 construct: poly-histidine; made in house; host or cells: E. coli
The assay can be described thus: Kinetic thiol consumption assay with Cdk2 mutant N272C. Particulars: for Rate enhancement, Cdk2 N272: Cdk2 N272, additional mutation C177A; for Rate constant with Cdk2 N272C: Protein: Cdk2, cysteine position N272C, additional mutation C177A, in h^-1. Also on record: key to Rate enhancement, Cdk2 N272: rate constant with Cdk2 ÷ rate constant with model thiol (fold). Type of assay: binding. Put shortly:
as §1

The next assay has as its target T5, Cdk2(C177A, F80C) (Homo sapiens, UniProt P24941, C177A/F80C).
T5 construct: poly-histidine; made in house; host or cells: E. coli
The assay can be described thus: Kinetic thiol consumption assay with Cdk2 mutant F80C, incl. kobs versus concentration (Kd, k2). The assay is classed as binding. Also on record: key to Rate enhancement, Cdk2 F80C: Cdk2 rate constant divided by model-thiol rate constant. As to conditions: additional mutation C177A; for Rate constant with Cdk2 F80C: Protein: Cdk2, cysteine position F80C, in h^-1. An outline of the steps: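 His-tagged Cdk2(C177A/F80C) from E. coli or model thiol, 5 μM in degassed phosphate buffer pH 8 with TCEP beads, reacted with acrylamide ligands; fluorescence (ex/em 380/470 nm) normalized to DMSO control and fitted to first-order decay for kobs. Kd and k2 obtained from hyperbolic fit of kobs versus ligand concentration.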

Assay [2] can be described thus: Kinetic thiol consumption assay with model thiol glutathione. The assay is classed as physicochemical. Also on record: Rate constant with glutathione (k(GSH)): unit not given here. As to conditions: for Rate constant with glutathione (k(GSH)): 500 μM ligand, 5 μM thiol, phosphate buffer pH 8; for Rate constant with Glutathione: Protein: Glutathione, cysteine position NA, in h-1. An outline of the steps: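 First, 5 μM glutathione in degassed phosphate buffer (pH 8) receives immobilized TCEP beads (2% v/v). Then acrylamide is added and plates incubate 1 h at room temperature. Finally, fluorescence (380/470 nm) is normalized and fitted to first-order decay for rate constants.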

Another assay concerns the target T6, Cdk2(T182C) (C177A) (Homo sapiens, UniProt P24941, C177A/T182C).
T6 construct: poly-histidine; made in house; host or cells: E. coli
Kind of assay: Kinetic thiol consumption assay with Cdk2 mutant T182C. The assay is classed as binding. Also noted: key to Rate enhancement, Cdk2 T182C: rate constant with Cdk2 ÷ rate constant with model thiol (fold). As to conditions: additional mutation C177A; for Rate constant with Cdk2 T182C: Protein: Cdk2, cysteine position T182C, in h^-1. Put shortly: as §1

In the next assay the target is T7, Cdk2(R122C) (C177A) (Homo sapiens, UniProt P24941, C177A/R122C).
T7 construct: poly-histidine; made in house; host or cells: E. coli
The assay can be described thus: Kinetic thiol consumption assay with Cdk2 mutant R122C. Type of assay: binding. Also on record: key to Rate enhancement, Cdk2 R122C: rate constant with Cdk2 ÷ rate constant with model thiol (fold). Particulars: additional mutation C177A; for Rate constant with Cdk2 R122C: Protein: Cdk2, cysteine position R122C, in h-1. Put shortly:
as §1

The next assay has as its target T8, Cdk2(S276C) (C177A) (Homo sapiens, UniProt P24941, C177A/S276C).
T8 construct: poly-histidine; made in house; host or cells: E. coli
Kind of assay: Kinetic thiol consumption assay with Cdk2 mutant S276C. Also noted: key to Rate enhancement, Cdk2 S276C: rate constant with Cdk2 ÷ rate constant with model thiol (fold). The assay is classed as binding. Particulars: additional mutation C177A; for Rate constant with Cdk2 S276C: Protein: Cdk2, cysteine position S276C, in h^-1. Put shortly: as §1

Another assay addresses T9, Cdk2(S181C) (C177A) (Homo sapiens, UniProt P24941, C177A/S181C).
T9 construct: poly-histidine; made in house; host or cells: E. coli
The assay can be described thus: Kinetic thiol consumption assay with Cdk2 mutant S181C. Type of assay: binding. Also noted: key to Rate enhancement, Cdk2 S181C: rate constant with Cdk2 ÷ rate constant with model thiol (fold). As to conditions: additional mutation C177A; for Rate constant with Cdk2 S181C: Protein: Cdk2, cysteine position S181C, in h^-1. Put shortly: as §1

These results are taken from patent US11415579B2, “Assay for measuring a rate of reaction between a target and a ligand candidate” (Imperial College Innovations Ltd., priority 2016, dated 2022).

Take `C=CC(=O)NCc1ccc(-c2csnn2)cc1` [BN-66]: on Cdk2(H71C) (C177A), the “Rate enhancement, Cdk2 H71C” value came out at 0.7553 and the “Rate constant with Cdk2 H71C” value turned out to be 0.00113. In addition, in [1], the “Rate constant with Cdk2 (k(Cdk2))” value came to 0.00089; the “Rate enhancement, Cdk2 WT” value was 0.9753; the “Rate constant with Cdk2 WT” value is given as 0.001459; the “k(Cdk2)/k(Cdk2_mut) rate enhancement” value worked out at 0.2541. Also, the “k(Cdk2)/k(GSH) rate enhancement” value in [1] came out at 0.5565. Further, the “Rate constant with Cdk2[C177A, F80C, K278C] (k(Cdk2_mut))” value (“Rate constant … (k(Cdk2_mut))” below) at Cdk2[C177A, F80C, K278C] came to 0.0035. Further, at Cdk2(N272C) (C177A), the “Rate enhancement, Cdk2 N272” value is 1.553 and the “Rate constant with Cdk2 N272C” value was determined as 0.002323. In addition, on Cdk2(C177A, F80C), the “Rate enhancement, Cdk2 F80C” value is reported as 2.336 and the “Rate constant with Cdk2 F80C” value is on record as 0.003494. Also, in assay [2], the “Rate constant with glutathione (k(GSH))” value is reported as 0.0016 and the “Rate constant with Glutathione” value is listed as 0.001496. In addition, on Cdk2(T182C) (C177A), the “Rate enhancement, Cdk2 T182C” value is listed as 3.479 and the “Rate constant with Cdk2 T182C” value was determined as 0.005204. Besides, the “Rate enhancement, Cdk2 R122C” value at Cdk2(R122C) (C177A) was found to be 0. Moreover, at Cdk2(S276C) (C177A), the “Rate enhancement, Cdk2 S276C” value came out at 0. Further, on Cdk2(S181C) (C177A), the “Rate enhancement, Cdk2 S181C” value worked out at 0.8476 and the “Rate constant with Cdk2 S181C” value was found to be 0.001268.

Consider `C=CC(=O)N1CCC2(CCCCCC2)C1` [CA-093], for which, at Cdk2(H71C) (C177A), the “Rate enhancement, Cdk2 H71C” value is recorded as 0.5753 and the “Rate constant with Cdk2 H71C” value amounted to 0.007628. For the same compound, in assay [1], the “Rate constant with Cdk2 (k(Cdk2))” value was found to be 0.00196; the “Rate enhancement, Cdk2 WT” value stood at 0.2573; the “Rate constant with Cdk2 WT” value was determined as 0.003412; the “k(Cdk2)/k(Cdk2_mut) rate enhancement” value was determined as 0.3873. Moreover, the “k(Cdk2)/k(GSH) rate enhancement” value in assay [1] is reported as 0.2651. Further, the “Rate constant … (k(Cdk2_mut))” value at Cdk2[C177A, F80C, K278C] was found to be 0.00507. Also, on Cdk2(N272C) (C177A), the “Rate enhancement, Cdk2 N272” value was determined as 0.4207 and the “Rate constant with Cdk2 N272C” value was determined as 0.005578. At Cdk2(C177A, F80C), the “Rate enhancement, Cdk2 F80C” value is reported as 1.271 and the “Rate constant with Cdk2 F80C” value was found to be 0.01686. For the same compound, in [2], the “Rate constant with glutathione (k(GSH))” value worked out at 0.0074 and the “Rate constant with Glutathione” value came to 0.01326. For the same compound, on Cdk2(T182C) (C177A), the “Rate enhancement, Cdk2 T182C” value was 4.072 and the “Rate constant with Cdk2 T182C” value is listed as 0.05399. Also, on Cdk2(R122C) (C177A), the “Rate enhancement, Cdk2 R122C” value came out at 0.311 and the “Rate constant with Cdk2 R122C” value came out at 0.004124. In addition, at Cdk2(S276C) (C177A), the “Rate enhancement, Cdk2 S276C” value amounted to 1.327 and the “Rate constant with Cdk2 S276C” value worked out at 0.0176. Besides, on Cdk2(S181C) (C177A), the “Rate enhancement, Cdk2 S181C” value is 0.776 and the “Rate constant with Cdk2 S181C” value worked out at 0.01029.

For the compound `C=CC(=O)NC1(C2CC2)CC1` [CA-047], the “Rate enhancement, Cdk2 H71C” value on Cdk2(H71C) (C177A) is 0. In assay [1], the “Rate constant with Cdk2 (k(Cdk2))” value is listed as 0.0056; the “Rate enhancement, Cdk2 WT” value was 0.4553; the “Rate constant with Cdk2 WT” value worked out at 0.0056; the “k(Cdk2)/k(Cdk2_mut) rate enhancement” value is given as 1.617. In assay [1], the “k(Cdk2)/k(GSH) rate enhancement” value amounted to 0.7407. Also, the “Rate constant … (k(Cdk2_mut))” value on Cdk2[C177A, F80C, K278C] was determined as 0.00346. At Cdk2(N272C) (C177A), the “Rate enhancement, Cdk2 N272” value stood at 0.1665 and the “Rate constant with Cdk2 N272C” value worked out at 0.002048. For the same compound, on Cdk2(C177A, F80C), the “Rate enhancement, Cdk2 F80C” value was 0.1307 and the “Rate constant with Cdk2 F80C” value is 0.001607. Besides, in assay [2], the “Rate constant with glutathione (k(GSH))” value was determined as 0.00756 and the “Rate constant with Glutathione” value is reported as 0.0123. Besides, on Cdk2(T182C) (C177A), the “Rate enhancement, Cdk2 T182C” value is 1.063 and the “Rate constant with Cdk2 T182C” value is 0.01308. In addition, at Cdk2(R122C) (C177A), the “Rate enhancement, Cdk2 R122C” value stood at 0.2628 and the “Rate constant with Cdk2 R122C” value was determined as 0.003233. In addition, at Cdk2(S276C) (C177A), the “Rate enhancement, Cdk2 S276C” value worked out at 0.5464 and the “Rate constant with Cdk2 S276C” value worked out at 0.006721. Moreover, on Cdk2(S181C) (C177A), the “Rate enhancement, Cdk2 S181C” value was 0.2766 and the “Rate constant with Cdk2 S181C” value was determined as 0.003402.
